Experiment: Peracetic acid titrations (pH)
Type: physicochemical
Protocol: Two peracetic acid solutions were prepared by adding distilled water to a flask containing peracetic acid. The concentration of one of the solutions was 5% (w/v) while that of the other was 10% (w/v). The calculated effective solute concentrations for these solutions were 1.97 and 3.95 Osm/L, respectively.
To a 50 mL beaker was added 20 mL distilled water. A cleaned, rinsed and dried probe from a calibrated, temperature compensating pH meter was lowered into the beaker. Sequential aliquots of the peracetic acid solution then were added to the beaker, with pH readings after each. The titrations were performed at room temperature.

Structure (SMILES): CC(=O)OO [Peracetic acid, peracetic acid]
- pH of water after addition (1 mL (5% by volume) of either 5% or 10% (w/v) solution): below 2
- pH (5% (w/v) solution, 0.25 mL added to 20 mL distilled water, room temperature): 2.42
- pH (5% (w/v) solution, 0.50 mL added to 20 mL distilled water, room temperature): 2.17
- pH (5% (w/v) solution, 0.75 mL added to 20 mL distilled water, room temperature): 2.00
- pH (5% (w/v) solution, 1.00 mL added to 20 mL distilled water, room temperature): 1.89
- pH (5% (w/v) solution, 1.25 mL added to 20 mL distilled water, room temperature): 1.80
- pH (5% (w/v) solution, 1.50 mL added to 20 mL distilled water, room temperature): 1.74
- pH (5% (w/v) solution, 1.75 mL added to 20 mL distilled water, room temperature): 1.68
- pH (5% (w/v) solution, 2.00 mL added to 20 mL distilled water, room temperature): 1.59
- pH (5% (w/v) solution, 2.25 mL added to 20 mL distilled water, room temperature): 1.56
- pH (5% (w/v) solution, 2.50 mL added to 20 mL distilled water, room temperature): 1.53
- pH (5% (w/v) solution, 2.75 mL added to 20 mL distilled water, room temperature): 1.48
- pH (5% (w/v) solution, 3.00 mL added to 20 mL distilled water, room temperature): 1.45
- pH (5% (w/v) solution, 3.25 mL added to 20 mL distilled water, room temperature): 1.42
- pH (5% (w/v) solution, 3.50 mL added to 20 mL distilled water, room temperature): 1.41
- pH (5% (w/v) solution, 3.75 mL added to 20 mL distilled water, room temperature): 1.38
- pH (5% (w/v) solution, 4.00 mL added to 20 mL distilled water, room temperature): 1.34
- pH (5% (w/v) solution, 4.25 mL added to 20 mL distilled water, room temperature): 1.30
- pH (5% (w/v) solution, 4.50 mL added to 20 mL distilled water, room temperature): 1.28
- pH (5% (w/v) solution, 4.75 mL added to 20 mL distilled water, room temperature): 1.26
- pH (5% (w/v) solution, 5.00 mL added to 20 mL distilled water, room temperature): 1.25
- pH (10% (w/v) solution, 0.1 mL added to 20 mL distilled water, room temperature): 2.74
- pH (10% (w/v) solution, 0.2 mL added to 20 mL distilled water, room temperature): 2.48
- pH (10% (w/v) solution, 0.3 mL added to 20 mL distilled water, room temperature): 2.33
- pH (10% (w/v) solution, 0.4 mL added to 20 mL distilled water, room temperature): 2.22
- pH (10% (w/v) solution, 0.5 mL added to 20 mL distilled water, room temperature): 2.14
- pH (10% (w/v) solution, 0.6 mL added to 20 mL distilled water, room temperature): 2.07
- pH (10% (w/v) solution, 0.7 mL added to 20 mL distilled water, room temperature): 2.00
- pH (10% (w/v) solution, 0.8 mL added to 20 mL distilled water, room temperature): 1.95
- pH (10% (w/v) solution, 0.9 mL added to 20 mL distilled water, room temperature): 1.91
- pH (10% (w/v) solution, 1.0 mL added to 20 mL distilled water, room temperature): 1.86
- pH (10% (w/v) solution, 1.1 mL added to 20 mL distilled water, room temperature): 1.83
- pH (10% (w/v) solution, 1.2 mL added to 20 mL distilled water, room temperature): 1.79
- pH (10% (w/v) solution, 1.3 mL added to 20 mL distilled water, room temperature): 1.76
- pH (10% (w/v) solution, 1.4 mL added to 20 mL distilled water, room temperature): 1.73
- pH (10% (w/v) solution, 1.5 mL added to 20 mL distilled water, room temperature): 1.70
- pH (10% (w/v) solution, 1.6 mL added to 20 mL distilled water, room temperature): 1.67
- pH (10% (w/v) solution, 1.7 mL added to 20 mL distilled water, room temperature): 1.65
- pH (10% (w/v) solution, 1.8 mL added to 20 mL distilled water, room temperature): 1.62
- pH (10% (w/v) solution, 1.9 mL added to 20 mL distilled water, room temperature): 1.60
- pH (10% (w/v) solution, 2.0 mL added to 20 mL distilled water, room temperature): 1.58
- asymptotic pH (either 5% or 10% (w/v) acid solution): ~1.1±0.1
- pH (solutions of at least 2.5% (w/v), according to the tabulated data): no more than 1.25
- pH of water after addition (tiny aliquot, less than 1% by volume, of either 5% or 10% (w/v) solution): below 3

From US11723361B2, “Antimicrobial composition having efficacy against endospores” (Next Science IP Holdings Pty Ltd, priority 2015, dated 2023)
